In article PMC4694659, “Biochemical Characterization of Medaka (Oryzias latipes) Transglutaminases, OlTGK1 and OlTGK2, as Orthologues of Human Keratinocyte-Type Transglutaminase” (PLoS ONE, 2015):

Columns and labels:
[1] = target: T1, OlTGK2 (Oryzias latipes, UniProt A0A0S3Q1B1); experiment: microplate transamidation: incorporation of bio-Cd into coated beta-casein, streptavidin-peroxidase read-out; format: biochemical; conditions: amine acceptor substrate; co-substrate beta-casein (coated); CaCl2; Tris-Cl pH 8.0; 25 °C; 20 min; labelled compound
T1 construct: full-length ORF (2340 bp, 778 residues as printed), N-terminal hexahistidine tag, pET24d, E. coli BL21(DE3)LysS; NBRP cDNA clone olsp48d24 (fish kept: Cab strain)
T1 sequence (A0A0S3Q1B1 1-779): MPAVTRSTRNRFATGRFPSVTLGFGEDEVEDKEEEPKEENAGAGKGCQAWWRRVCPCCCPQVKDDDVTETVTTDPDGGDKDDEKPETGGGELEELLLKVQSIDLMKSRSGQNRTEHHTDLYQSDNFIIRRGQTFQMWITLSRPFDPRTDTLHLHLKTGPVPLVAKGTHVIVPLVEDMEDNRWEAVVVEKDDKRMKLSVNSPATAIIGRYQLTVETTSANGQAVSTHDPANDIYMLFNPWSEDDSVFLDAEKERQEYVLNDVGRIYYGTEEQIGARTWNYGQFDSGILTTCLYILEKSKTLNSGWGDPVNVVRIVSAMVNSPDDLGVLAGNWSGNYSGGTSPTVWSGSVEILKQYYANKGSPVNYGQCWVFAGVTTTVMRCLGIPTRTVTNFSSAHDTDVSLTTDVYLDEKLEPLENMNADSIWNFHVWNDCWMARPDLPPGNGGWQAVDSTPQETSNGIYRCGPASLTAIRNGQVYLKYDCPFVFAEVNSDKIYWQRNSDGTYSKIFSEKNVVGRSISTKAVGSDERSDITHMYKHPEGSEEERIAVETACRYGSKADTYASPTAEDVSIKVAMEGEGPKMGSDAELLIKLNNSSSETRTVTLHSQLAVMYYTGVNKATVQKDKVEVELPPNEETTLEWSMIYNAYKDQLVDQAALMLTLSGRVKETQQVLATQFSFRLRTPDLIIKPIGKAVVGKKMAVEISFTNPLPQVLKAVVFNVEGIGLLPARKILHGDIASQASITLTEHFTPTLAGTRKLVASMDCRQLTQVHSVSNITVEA

[2] = target: T2, OlTGK1 (Oryzias latipes, UniProt A0A0S3Q197); experiment: as above; format: biochemical; conditions: amine acceptor substrate; co-substrate beta-casein (coated); CaCl2; Tris-Cl pH 8.0; 25 °C; 20 min; labelled compound
T2 construct: full-length ORF (2067 bp, 688 residues), N-terminal hexahistidine tag, pET24d, E. coli BL21(DE3)LysS; cDNA cloned from embryonic medaka cDNA library (fish kept: Cab strain)
T2 sequence (A0A0S3Q197 1-688): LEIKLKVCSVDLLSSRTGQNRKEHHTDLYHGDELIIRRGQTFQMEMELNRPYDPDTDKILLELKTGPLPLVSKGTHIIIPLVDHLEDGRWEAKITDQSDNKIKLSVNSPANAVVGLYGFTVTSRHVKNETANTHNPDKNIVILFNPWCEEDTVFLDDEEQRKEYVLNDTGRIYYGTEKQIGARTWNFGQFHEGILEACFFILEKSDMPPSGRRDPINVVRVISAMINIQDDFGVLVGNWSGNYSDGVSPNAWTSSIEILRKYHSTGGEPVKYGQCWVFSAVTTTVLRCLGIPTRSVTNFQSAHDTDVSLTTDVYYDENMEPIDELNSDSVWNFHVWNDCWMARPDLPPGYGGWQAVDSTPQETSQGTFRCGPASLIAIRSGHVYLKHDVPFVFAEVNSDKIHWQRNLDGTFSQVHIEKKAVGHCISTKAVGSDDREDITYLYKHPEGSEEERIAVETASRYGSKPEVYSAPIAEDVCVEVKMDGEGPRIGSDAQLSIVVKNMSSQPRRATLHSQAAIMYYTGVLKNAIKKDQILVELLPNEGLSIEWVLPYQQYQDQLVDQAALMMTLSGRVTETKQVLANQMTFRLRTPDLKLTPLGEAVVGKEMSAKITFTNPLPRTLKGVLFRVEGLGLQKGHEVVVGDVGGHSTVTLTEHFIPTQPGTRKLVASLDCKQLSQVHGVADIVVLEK

Structure (SMILES): NCCCCCNC(=O)CCCC[C@@H]1SC[C@@H]2NC(=O)N[C@@H]21 [bio-Cd]
- microplate transamidation: incorporation of bio-Cd into coated beta-casein, stre [1]: apparent incorporation was observed in the presence of three-different amounts of OlTGK1 and OlTGK2
- microplate transamidation: incorporation of bio-Cd into coated beta-casein, stre [2]: apparent incorporation was observed in the presence of three-different amounts of OlTGK1 and OlTGK2
